Starred links: 1 amine or outer side, 2 acyl side, 3 side chain; linkers in the order of their positions; H or OH if unused. Positions of bridges follow the written chain, without caps; N, C: chain ends. Non-standard residues stand in square brackets, D forms with d. Residues, ends and D or L forms follow the SMILES beside them. *: point of attachment. Leu(3R-OH,Nα-propionyl) = CCC(=O)N[C@H](C(=O)*)[C@H](O)C(C)C; X1 = CC(C)[C@@H](O[*:3])[C@H](N[*:1])C(=O)[*:2]; NMeT = CN[C@H](C(=O)O)[C@@H](C)O; dPhLac = O=C(O)[C@H](O)Cc1ccccc1; NMeA = CN[C@@H](C)C(=O)O; NMeDha = C=C(NC)C(=O)O
What was measured:
[1] = Displacement of [3H]-PSB15900 from human platelet membrane Gq incubated for 90 mins by scintillation counter method; assay type: cell membranes
[2] = molecular target: T1, Guanine nucleotide-binding protein G(q) subunit alpha (Homo sapiens, UniProt P50148); assay: Inhibition of wild type GNAQ (unknown origin) expressed in CRISPR/Cas9 engineered HEK293 cells; assay type: cell-based
T1 sequence (P50148 whole entry): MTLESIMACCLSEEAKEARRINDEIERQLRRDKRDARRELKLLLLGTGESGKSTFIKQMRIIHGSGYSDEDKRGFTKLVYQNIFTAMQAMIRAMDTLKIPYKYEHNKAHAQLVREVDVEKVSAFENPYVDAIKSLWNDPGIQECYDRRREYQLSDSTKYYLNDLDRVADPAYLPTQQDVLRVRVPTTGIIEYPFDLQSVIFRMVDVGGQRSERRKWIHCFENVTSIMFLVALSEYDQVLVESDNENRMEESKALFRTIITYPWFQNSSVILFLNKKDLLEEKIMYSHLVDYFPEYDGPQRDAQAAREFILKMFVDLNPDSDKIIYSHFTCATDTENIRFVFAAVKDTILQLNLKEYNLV

Row | IC50 [2] | SMILES | pKi [1]
1 |  | C=C1C(=O)N[C@@H](C)C(=O)N(C)[C@@H](C)C(=O)N[C@@H]([C@H](OC(=O)[C@@H](NC(=O)CC)[C@H](O)C(C)C)C(C)C)C(=O)N(C)[C@@H]([C@@H](C)OC)C(=O)O[C@H](C(C)C)[C@H](NC(C)=O)C(=O)O[C@H](Cc2ccccc2)C(=O)N1C (Ac-[X1][dPhLac][NMeDha]A[NMeA][X1](Leu(3R-OH,Nα-propionyl))[NMeT](Me); ester 1-C) | 8.66
2 | 2750 nM | C=C1C(=O)N[C@@H](C)C(=O)N(C)[C@@H](C)C(=O)N[C@@H]([C@H](OC(=O)[C@@H](NC(C)=O)C(O)C(C)C)C(C)C)C(=O)N(C)/C(=C\C)C(=O)O[C@H](C(C)C)[C@H](NC(C)=O)C(=O)O[C@H](Cc2ccccc2)C(=O)N1C (single isomer, unassigned) | 7.5

Source: ChEMBL document CHEMBL4837238, “Feature-Based Molecular Networking for the Targeted Identification of Gq-Inhibiting FR900359 Derivatives” (J Nat Prod, 2021)
